The text below walks through data of patent US20070196886A1 (priority 2004, published 2007).

Like-named read-outs stand apart in the source and are kept apart here.

Common to all, as to assay type: biochemical
Assay [1] deals with T1, RNAP holoenzyme (Escherichia coli, UniProt P0A8T7+P0A8V2). Conditions: for Vmax: FIG. 3E. The protocol:
(§1) Following 15 min at 37° C., 0.5 μl 1 mg/ml heparin was added, and, following a further 2 min at 37° C., RNA synthesis was initiated by addition of 2 μl 5 mM ApA and 125 μM (or 250 μM, 500 μM, and 1 mM) each of [α-^32P]UTP (0.6 Bq/fmol), ATP, CTP, GTP. Following 5 min at 37° C., reactions were terminated by addition of 10 μl 80% formamide, 10 mM EDTA, 0.04% bromophenol blue, and 0.04% xylene cyanol. Products were heated 10 min at 90° C., resolved by urea-PAGE (Sambrook and Russel, (2001)), and quantified using a storage-phosphor scanner (Storm 860; Molecular Dynamics). Identities of tri- and tetranucleotide abortive products were defined as in Borowiec and Gralla, (1985) J. Mol. Biol. 184, 587-598). Data were fit to full-competitive, partial-competitive, full-noncompetitive, partial-noncompetitive, full-uncompetitive, partial-uncompetitive, full-mixed, and partial-mixed models of inhibition using the Fit-To-Model feature of the SigmaPlot Enzyme Kinetics Module (SPSS).

The target in assay [2] is T2, [Ile931]β′ RNAP holoenzyme (Escherichia coli, UniProt P0A8T7+P0A8V2, T931I).
T2 construct: [Ile931]β′ RNAP core and holoenzyme were prepared from strain 397c; hexahistidine (C); made in house; host or cells: E. coli strain 397c (rpoC^ts397) transformed with a pRL663 derivative
The assay is described as follows: Transcription assays with RNAP derivative bearing Thr931→Ile substitution in β′. On the procedure: as §1

Assay [3] addresses T1, RNAP holoenzyme. Conditions: FIG. 3F. On the procedure: Following 15 min at 37° C., 0.5 μl 1 mg/ml heparin was added, and, following a further 2 min at 37° C., 1 μl of 0.25-5 mM (γ-AmNS)UTP (Molecular Probes) was added, and reaction mixtures were transferred to sub-micro fluorometer cuvettes (Starna Cells). Following 2 min at 37° C., RNA synthesis was initiated by addition of 2.5 μl 10 mM ApA, and fluorescence emission intensity was monitored 5 min at 37° C. [excitation wavelength=360 nm and emission wavelength=500 nm; excitation and emission slit widths=4 nm; QuantaMaster QM1 spectrofluorometer (PTI)]. The quantity of UMP incorporated into RNA was determined from the quantity of (γ-AmNS)UTP consumed, which, in turn, was calculated as follows (Schlageck et al., (1979) J. Biol. Chem. 254, 12074-12077): (γ-AmNS)UTPconsumed=[(γ-AmNS)UTP0](Ft−F0)/(12.4×F0) (1) where (γ-AmNS)UTP0 is the quantity of (γ-AmNS) UTP at time 0, F0 is the fluorescence emission intensity at time 0, and Ft is the fluorescence emission intensity at time t. Data were fit to full-competitive, partial-competitive, full-noncompetitive, partial-noncompetitive, full-uncompetitive, partial-uncompetitive, full-mixed, and partial-mixed models of inhibition as in the preceding section.

The target of assay [4] is T3, halted transcription elongation complex containing 12 nt of RNA (TEC12) (Escherichia coli, UniProt P0A8T7+P0A8V2).
T3 construct: made in house
The assay is described as follows: Transcription experiment starting with halted elongation complex (TEC12). Conditions: 0, 1, 10, or 100 μM MccJ25; compared with open-complex experiments. The protocol:
TEC12 was prepared by reaction for 5 min at 37° C. with 0.5 mM ApA, and 12.5 μM each of [α-^32P]UTP, ATP, and GTP.

For Microcin J25 [MccJ25], the “mode of inhibition with respect to NTPs” value at RNAP holoenzyme [1] was “partial competitive”. Further, at RNAP holoenzyme [1] (100 μM MccJ25, 5 min at 37° C.), the “inhibition of formation of abortive products (3 nt and 4 nt RNA species)” value was 86%. For the same substance, the “inhibition of formation of the full-length product (26 nt RNA species)” value against RNAP holoenzyme [1] (100 μM MccJ25, 5 min at 37° C.) was 94%. Further, the “effect of high NTP concentrations on inhibition” value at RNAP holoenzyme [1] (NTP 12.5, 25, 50, 100 μM) is “can overcome inhibition”. Moreover, the Vmax at RNAP holoenzyme [1] (at 1 μM MccJ25) stood at 1.9±0.4 mol/mol template/min; at RNAP holoenzyme [1] (at 10 μM MccJ25), 1.4±0.7 mol/mol template/min; at RNAP holoenzyme [3] (at 1 μM MccJ25), 5.3±2.8 mol/mol template/min; at RNAP holoenzyme [3] (at 10 μM MccJ25) it was 2.4±2.9 mol/mol template/min. Besides, the “inhibition upon substitution of residue 931 of the RNAP β′ subunit” value in assay [2] is “overcome completely”. Besides, the “inhibition of formation of full-length product starting with halted elongation complex” value in assay [4] was “equivalent results”.
